This is an account of results in patent US12630530B2, “FGFR inhibitor compound and use thereof” (HENAN MEDINNO PHARMACEUTICAL TECHNOLOGY CO., LTD., priority 2020, dated 2026).

What all share (type): biochemical
Test [1] deals with T1, FGFR1 V561M (Homo sapiens, UniProt P11362, V561M).
T1 construct: purchased Signalchem F04-13G
Description: Assay I: inhibitory activity against FGFR mutants (HTRF KinEASE-TK). To be noted: Table 1; ATP working concentration 5 μM, substrate TK 1 μM. As to the method: (§1) Assay I: Determination of Inhibitory Activity Against FGFR Mutants
(§2) 1×Kinase reaction buffer was formulated with 1×volume of 5× kinase reaction buffer and 4×volume of water; 5 mM MgCl2; and 1 mM DTT.
(§3) 2.3 Screening of Compounds: • 1. […] Adding 1 μl of the compound diluted in buffer to each well, sealing the plate with a sealing membrane and centrifuging the plate at 1000 g for 30 seconds and leaving it at room temperature for 10 minutes. • 6. Formulating 2.5×TK-substrate-biotin and ATP mixture with 1× enzyme reaction buffer and adding 2 μl of K-substrate-biotin/ATP mixture to the reaction plate. • 7. Sealing the plate with a sealing membrane and centrifuging the plate at 1000 g for 30 seconds and allowing it to react at room temperature for 50 minutes. • 8. […] 3. Data Analysis
(§4) 3.3 Calculation of IC50 and plotting of inhibition curves for the compounds.
(§5) The IC50 (half inhibition concentration) of a compound was obtained using the following non-linear fitting equation, wherein data analysis was performed using Graphpad 6.0 software.
(§6) Data were exported from Envision and analyzed manually. The ratios were converted to inhibition rates and IC50 was calculated by Prism GraphPad 6.0 from the inhibition rates. IC50 was calculated again by the ratios to verify accuracy of the results.
A general note: TR-FRET usually uses a lanthanide donor and a delayed reading to cut background.

The target in test [2] is T2, FGFR2 V564F (Homo sapiens, UniProt P21802, V564F).
T2 construct: purchased Signalchem F05-12FG
The test is described as above. As to conditions: Table 1; ATP working concentration 10 μM, substrate TK 1 μM. As to the method: as §1, §2, §3, §4, §5, §6

Test [3] addresses T3, FGFR3 V555M (Homo sapiens, UniProt P22607, V555M).
T3 construct: purchased Signalchem F06-12GG
Described as above. As to conditions: Table 1; ATP working concentration 20 μM, substrate TK 1 μM. As to the method:
as §1, §2
(§7) 2.3 Screening of Compounds: • 1. Diluting a compound 4-fold in a dilution plate with DMSO, with a starting compound concentration of 2 mM (4 mM for Nentedanib). • 2. Diluting the compound 40-fold into 1× kinase reaction buffer and shaking it on a shaker for 20 minutes. • 3. […] Adding 1 μl of the compound diluted in buffer to each well, sealing the plate with a sealing membrane and centrifuging the plate at 1000 g for 30 seconds and leaving it at room temperature for 10 minutes. • 6. Formulating 2.5×TK-substrate-biotin and ATP mixture with 1× enzyme reaction buffer and adding 2 μl of K-substrate-biotin/ATP mixture to the reaction plate. • 7. Sealing the plate with a sealing membrane and centrifuging the plate at 1000 g for 30 seconds and allowing it to react at room temperature for 50 minutes. • 8. Formulating 4×Sa-XL 665 (250 nM) with HTRF assay buffer. • 9. Adding 5 μl Sa-XL 665 and 5 μl TK-Antibody-Cryptate to each well, centrifuging it at 1000 g for 30 seconds, and allowing it to react for 1 hour at room temperature. • 10. Reading fluorescence signals at 615 nm (Cryptate) and 665 nm (XL665) with Biotek. 3. Data Analysis
(§8) 3.1 Calculation of the ratio for each well: the ratio was calculated as 665/615 nm.
as §4, §5, §6

Test [4] concerns the target T4, VEGFR2 (Homo sapiens, UniProt P35968).
T4 construct: purchased Carna 08-191
Put plainly: Assay I: kinase inhibition (HTRF KinEASE-TK), VEGFR2. As to conditions: Table 1; ATP working concentration 5 μM, substrate TK 1 μM.

For test [5], the target named is T1, FGFR1 V561M. Description: Assay III: inhibitory activity against FGFR mutants (method of Assay I, different operator). To be noted: Table 3; same method as Assay I, different experimental operator. As to the method: as §2, §7, §8, §4, §5, §6
(§9) Assay III: Determination of Inhibitory Activity Against FGFR Mutants

For test [6], the target named is T2, FGFR2 V564F. The description is as above. As to conditions: Table 3; same method as Assay I, different experimental operator. As to the method: as §2, §7, §8, §4, §5, §6, §9
The target in test [7] is T3, FGFR3 V555M. Described as above. To be noted: Table 3; same method as Assay I, different experimental operator. As to the method: as §2, §7, §8, §4, §5, §6, §9
The target in test [8] is T4, VEGFR2. Description: Assay III: kinase inhibition (method of Assay I, different operator), VEGFR2. To be noted: Table 3; same method as Assay I, different experimental operator. As to the method:
as §2
2.3 Screening of Compounds: • 1. Diluting a compound 4-fold in a dilution plate with DMSO, with a starting compound concentration of 2 mM (4 mM for Nentedanib). • 2. Diluting the compound 40-fold into 1× kinase reaction buffer and shaking it on a shaker for 20 minutes. • 3. Formulating 2×FGFR1 V561M/FGFR2 V564F/FGFR3 K650E/VEGFR2 with 1× of enzyme reaction buffer. • 4. Adding 2 μl FGFR1 V561M/FGFR2 V564F/FGFR3 K650E/VEGFR2 kinase (formulated in step 3) to each well of the reaction plate. • 5. Adding 1 μl of the compound diluted in buffer to each well, sealing the plate with a sealing membrane and centrifuging the plate at 1000 g for 30 seconds and leaving it at room temperature for 10 minutes. • 6. Formulating 2.5×TK-substrate-biotin and ATP mixture with 1× enzyme reaction buffer and adding 2 μl of K-substrate-biotin/ATP mixture to the reaction plate. • 7. Sealing the plate with a sealing membrane and centrifuging the plate at 1000 g for 30 seconds and allowing it to react at room temperature for 50 minutes. • 8. Formulating 4×Sa-XL 665 (250 nM) with HTRF assay buffer. • 9. Adding 5 μl Sa-XL 665 and 5 μl TK-Antibody-Cryptate to each well, centrifuging it at 1000 g for 30 seconds, and allowing it to react for 1 hour at room temperature. • 10. Reading fluorescence signals at 615 nm (Cryptate) and 665 nm (XL665) with Biotek. 3. Data Analysis
as §8, §4
The IC50 (half inhibition concentration) of a compound was obtained using the following non-linear fitting equation, wherein data analysis was performed using Graphpad 6.0 software. Y=Bottom+(Top−Bottom)/(1+10^((Log IC50−X)*Hill Slope)) • X: log value of compound concentration; and Y: inhibition rate (% inh) 3.4 Validation of Results
as §6, §9

T1 sequence (P11362 22-822 V561M): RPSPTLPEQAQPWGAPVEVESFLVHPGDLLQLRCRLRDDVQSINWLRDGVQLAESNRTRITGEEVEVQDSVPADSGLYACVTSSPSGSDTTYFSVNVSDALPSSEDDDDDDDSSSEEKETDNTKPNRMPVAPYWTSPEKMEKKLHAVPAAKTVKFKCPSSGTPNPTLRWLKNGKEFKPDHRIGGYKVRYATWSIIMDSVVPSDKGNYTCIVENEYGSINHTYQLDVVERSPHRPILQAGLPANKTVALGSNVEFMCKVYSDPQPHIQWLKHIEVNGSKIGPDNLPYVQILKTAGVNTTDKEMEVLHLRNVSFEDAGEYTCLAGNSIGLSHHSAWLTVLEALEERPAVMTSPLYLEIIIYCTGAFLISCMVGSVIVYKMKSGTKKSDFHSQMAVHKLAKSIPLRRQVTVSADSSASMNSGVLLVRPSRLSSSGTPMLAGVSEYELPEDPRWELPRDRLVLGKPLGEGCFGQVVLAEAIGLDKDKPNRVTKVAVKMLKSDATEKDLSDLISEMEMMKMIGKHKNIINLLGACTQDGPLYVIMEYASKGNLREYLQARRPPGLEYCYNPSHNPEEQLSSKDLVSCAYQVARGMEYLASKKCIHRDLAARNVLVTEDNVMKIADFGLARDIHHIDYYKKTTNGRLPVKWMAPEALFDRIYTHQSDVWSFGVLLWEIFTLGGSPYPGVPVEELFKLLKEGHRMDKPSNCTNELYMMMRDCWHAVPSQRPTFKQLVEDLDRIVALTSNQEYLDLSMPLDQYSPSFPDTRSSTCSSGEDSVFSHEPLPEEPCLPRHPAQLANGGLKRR
T2 sequence (P21802 22-821 V564F): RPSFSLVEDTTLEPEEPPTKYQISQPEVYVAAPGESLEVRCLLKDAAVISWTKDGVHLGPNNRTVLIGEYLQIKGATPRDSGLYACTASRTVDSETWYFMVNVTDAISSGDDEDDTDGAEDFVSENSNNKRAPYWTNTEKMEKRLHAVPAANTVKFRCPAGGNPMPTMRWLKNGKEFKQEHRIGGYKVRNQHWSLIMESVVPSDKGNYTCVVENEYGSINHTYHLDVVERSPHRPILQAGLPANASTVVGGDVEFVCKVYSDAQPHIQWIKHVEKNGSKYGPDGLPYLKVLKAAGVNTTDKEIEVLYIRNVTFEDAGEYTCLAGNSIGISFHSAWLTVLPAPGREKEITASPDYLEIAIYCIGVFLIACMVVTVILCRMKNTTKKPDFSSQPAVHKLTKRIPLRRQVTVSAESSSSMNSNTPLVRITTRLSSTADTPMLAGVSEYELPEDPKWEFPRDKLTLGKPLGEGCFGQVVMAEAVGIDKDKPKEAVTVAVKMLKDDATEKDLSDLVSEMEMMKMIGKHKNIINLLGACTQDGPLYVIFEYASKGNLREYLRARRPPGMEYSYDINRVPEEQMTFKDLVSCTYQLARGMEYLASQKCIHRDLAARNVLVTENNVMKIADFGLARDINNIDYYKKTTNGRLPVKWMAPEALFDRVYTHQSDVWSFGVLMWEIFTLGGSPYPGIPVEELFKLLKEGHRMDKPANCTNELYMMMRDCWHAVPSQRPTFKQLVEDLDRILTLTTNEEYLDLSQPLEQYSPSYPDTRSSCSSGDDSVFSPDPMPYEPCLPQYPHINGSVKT
T4 sequence (P35968 20-1356): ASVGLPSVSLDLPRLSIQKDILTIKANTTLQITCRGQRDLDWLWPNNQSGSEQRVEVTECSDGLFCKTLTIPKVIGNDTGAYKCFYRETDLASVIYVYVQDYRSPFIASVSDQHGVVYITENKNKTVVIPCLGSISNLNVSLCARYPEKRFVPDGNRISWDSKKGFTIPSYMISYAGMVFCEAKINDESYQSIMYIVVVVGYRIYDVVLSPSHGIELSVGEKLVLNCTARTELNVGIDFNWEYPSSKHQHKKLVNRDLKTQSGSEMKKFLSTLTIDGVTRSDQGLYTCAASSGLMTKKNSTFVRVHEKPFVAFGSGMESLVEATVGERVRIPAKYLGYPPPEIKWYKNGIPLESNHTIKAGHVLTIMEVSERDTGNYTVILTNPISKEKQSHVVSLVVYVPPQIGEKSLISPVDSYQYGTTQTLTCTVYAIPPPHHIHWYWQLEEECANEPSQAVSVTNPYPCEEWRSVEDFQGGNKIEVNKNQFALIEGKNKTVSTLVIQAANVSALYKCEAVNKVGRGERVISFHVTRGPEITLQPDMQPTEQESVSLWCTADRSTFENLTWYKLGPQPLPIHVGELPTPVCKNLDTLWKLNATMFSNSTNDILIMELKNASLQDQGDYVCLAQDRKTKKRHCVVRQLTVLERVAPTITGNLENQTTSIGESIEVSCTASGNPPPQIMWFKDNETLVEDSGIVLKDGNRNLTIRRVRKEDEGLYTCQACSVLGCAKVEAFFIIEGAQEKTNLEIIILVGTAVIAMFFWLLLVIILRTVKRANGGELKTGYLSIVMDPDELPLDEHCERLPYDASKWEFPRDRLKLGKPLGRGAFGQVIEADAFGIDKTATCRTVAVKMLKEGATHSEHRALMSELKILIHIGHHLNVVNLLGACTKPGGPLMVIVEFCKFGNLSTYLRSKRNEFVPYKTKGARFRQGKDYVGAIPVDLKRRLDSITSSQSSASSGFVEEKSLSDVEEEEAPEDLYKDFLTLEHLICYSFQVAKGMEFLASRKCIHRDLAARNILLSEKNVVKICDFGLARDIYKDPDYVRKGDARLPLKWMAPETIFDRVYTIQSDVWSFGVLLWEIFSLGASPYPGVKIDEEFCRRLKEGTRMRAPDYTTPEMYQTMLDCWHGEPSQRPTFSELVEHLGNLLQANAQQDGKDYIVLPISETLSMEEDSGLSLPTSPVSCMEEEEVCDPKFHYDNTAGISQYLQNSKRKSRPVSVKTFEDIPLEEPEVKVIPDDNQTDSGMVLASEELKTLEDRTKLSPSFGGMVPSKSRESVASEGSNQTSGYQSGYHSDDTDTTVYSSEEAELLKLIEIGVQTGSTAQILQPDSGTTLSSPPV
T3 sequence (P22607 23-806 V555M): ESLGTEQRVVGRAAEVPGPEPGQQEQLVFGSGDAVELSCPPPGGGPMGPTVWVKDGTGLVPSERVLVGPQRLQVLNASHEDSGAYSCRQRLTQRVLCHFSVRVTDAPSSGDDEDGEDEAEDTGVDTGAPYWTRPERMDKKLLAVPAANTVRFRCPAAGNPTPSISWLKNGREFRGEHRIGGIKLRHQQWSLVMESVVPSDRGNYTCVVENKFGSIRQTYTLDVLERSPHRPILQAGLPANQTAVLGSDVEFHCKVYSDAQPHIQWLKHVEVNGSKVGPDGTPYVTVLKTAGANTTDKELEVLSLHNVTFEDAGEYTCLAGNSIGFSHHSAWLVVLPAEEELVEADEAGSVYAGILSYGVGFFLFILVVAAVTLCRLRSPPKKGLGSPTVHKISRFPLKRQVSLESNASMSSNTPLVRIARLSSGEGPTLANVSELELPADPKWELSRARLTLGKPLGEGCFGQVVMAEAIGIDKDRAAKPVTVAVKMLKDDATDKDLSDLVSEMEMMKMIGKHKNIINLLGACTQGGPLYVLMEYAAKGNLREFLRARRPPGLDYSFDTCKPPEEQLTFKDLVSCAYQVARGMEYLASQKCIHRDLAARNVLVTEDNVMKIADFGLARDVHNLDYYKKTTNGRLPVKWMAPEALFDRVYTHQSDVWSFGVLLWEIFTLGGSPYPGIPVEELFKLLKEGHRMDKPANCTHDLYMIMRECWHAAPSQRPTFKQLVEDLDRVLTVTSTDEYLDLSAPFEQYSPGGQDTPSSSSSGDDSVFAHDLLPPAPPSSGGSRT

Usually IC50 stands for the concentration that inhibits the measured activity by half. Low readings indicate greater potency, high ones weaker potency. For the molecule `CCn1cc(NC(=O)c2n[nH]c3ccc(OC(C)c4c(Cl)cncc4Cl)cc23)cn1` (stereo not shown) [Compound 20, 5-(1-(3,5-dichloropyridin-4-yl)ethoxy)-N-(1-ethyl-1H-pyrazol-4-yl)-1H-indazole-3-carboxamide], the IC50 in test [1] was determined as 9.1 nM; in test [2] it was 0.82 nM; in test [3], 0.88 nM; in test [4] it was 327 nM.
On to `CC(Oc1ccc2[nH]nc(C(=O)Nc3ccc(N4C[C@@H](C)N[C@@H](C)C4)cn3)c2c1)c1c(Cl)cncc1Cl` (stereo partly drawn) [Compound 16, 5-(1-(3,5-dichloropyridin-4-yl)ethoxy)-N-(5-((3S, 5R)-3,5-dimethylpiperazin-1-yl)pyridin-2-yl)-1H-indazole-3-carboxamide], for which the IC50 in test [1] came to 22.8 nM; in test [2], 34.1 nM; in test [3], 41.7 nM; in test [4] it was 1210 nM.
On to `CC(Oc1ccc2[nH]nc(C(=O)Nc3ccc(N4CCOCC4)nc3)c2c1)c1c(Cl)cncc1Cl` (stereo not shown) [Compound 4, 5-(1-(3,5-dichloropyridin-4-yl)ethoxy)-N-(6-morpholinopyridin-3-yl)-1H-indazole-3-carboxamide], for which the IC50 in test [1] is 95.1 nM; in test [2], 9.5 nM; in test [4], 1590 nM.
With `CC(Oc1ccc2[nH]nc(C(=O)Nc3cnn(CC4CCN(C)CC4)c3)c2c1)c1c(Cl)cncc1Cl` (stereo not shown) [Compound 22], the IC50 in test [1] was found to be 0.91 nM; in test [2] it was 0.6 nM; in test [3], 0.79 nM; in test [4] it was 179 nM.
On to `CC(Oc1ccc2[nH]nc(C(=O)Nc3cnn(CCN4CCOCC4)c3)c2c1)c1c(Cl)cncc1Cl` (stereo not shown) [Compound 19, 5-(1-(3,5-dichloropyridin-4-yl)ethoxy)-N-(1-(2-morpholinoethyl)-1H-pyrazol-4-yl)-1H-indazole-3-carboxamide], for which the concentration for half-maximal inhibition (IC50) in test [1] amounted to 0.35 nM; in test [2], 0.24 nM; in test [3], 0.27 nM; in test [4] it was 63.4 nM.
Regarding `CC(Oc1ccc2[nH]nc(C(=O)Nc3ccc(N4C[C@@H](C)N[C@@H](C)C4)c(F)c3)c2c1)c1c(Cl)cncc1Cl` (stereo partly drawn) [Compound 17, 5-(1-(3,5-dichloropyridin-4-yl)ethoxy)-N-(4-((3S, 5R)-3,5-dimethylpiperazin-1-yl)-3-fluorophenyl)-1H-indazole-3-carboxamide], the IC50 is 8.6 nM in test [1], 2.3 nM in test [2], 6.9 nM in test [3] and 173 nM in test [4].
Turning to `CC(Oc1ccc2[nH]nc(C(=O)Nc3cnn(C4CN(C)C4)c3)c2c1)c1c(Cl)cncc1Cl` (stereo not shown) [Compound 21, 5-(1-(3,5-dichloropyridin-4-yl)ethoxy)-N-(1-(1-methylazetidin-3-yl)-1H-pyrazol-4-yl)-1H-indazole-3-carboxamide], the IC50 in test [1] worked out at 0.27 nM; in test [2], 0.09 nM; in test [3], 0.15 nM; in test [4], 39.4 nM.
Take `CC(Oc1ccc2[nH]nc(C(=O)Nc3cnn(CCC4(O)CC4)c3)c2c1)c1c(Cl)cncc1Cl` (stereo not shown) [Compound 15, 5-(1-(3,5-dichloropyridin-4-yl)ethoxy)-N-(1-(2-(1-hydroxycyclopropyl)ethyl)-1H-pyrazol-4-yl)-1H-indazole-3-carboxamide]: the IC50 in test [1] is 2.2 nM; in test [2] it was 0.84 nM; in test [3] it was 2.1 nM; in test [4], 66.2 nM.
`CC(Oc1ccc2[nH]nc(C(=O)Nc3ccc(N4CC[C@@H](O)C4)cc3)c2c1)c1c(Cl)cncc1Cl` (stereo partly drawn) [Compound 3, 5-(1-(3,5-dichloropyridin-4-yl)ethoxy)-N-(4-((R)-3-hydroxypyrrolidin-1-yl)phenyl)-1H-indazole-3-carboxamide]: the IC50 in test [1] is 69.7 nM; in test [2], 22.1 nM; in test [4], greater than 10000 nM.
As for `CCN1CCC(c2ccc(NC(=O)c3n[nH]c4ccc(OC(C)c5c(Cl)cncc5Cl)cc34)cc2)CC1` (stereo not shown) [Compound 18, 5-(1-(3,5-dichloropyridin-4-yl)ethoxy)-N-(4-(1-ethylpiperidin-4-yl)phenyl)-1H-indazole-3-carboxamide], the IC50 in test [1] came to 1.6 nM; in test [2] it was 0.63 nM; in test [3], 1.1 nM; in test [4], 141 nM.
For `C[C@@H](Oc1ccc2[nH]nc(C(=O)Nc3cnn(C4CC(O)C4)c3)c2c1)c1c(Cl)cncc1Cl` (stereo partly drawn) [Compound 35, (R)-5-(1-(3,5-dichloropyridin-4-yl)ethoxy)-N-(1-(3-hydroxycyclobutyl)-1H-pyrazol-4-yl)-1H-indazole-3-carboxamide], the IC50 in test [5] came to 0.29 nM; in test [6], 0.16 nM; in test [7], 0.27 nM; in test [8], 89 nM.
For the molecule `CCC(Oc1ccc2[nH]nc(C(=O)Nc3cnn(C)c3)c2c1)c1c(Cl)cncc1Cl` (stereo not shown) [Compound 46, 5-(1-(3,5-dichloropyridin-4-yl)propoxy)-N-(1-methyl-1H-pyrazol-4-yl)-1H-indazole-3-carboxamide], the IC50 was determined as 3.4 nM in test [5], 1 nM in test [6], 2.1 nM in test [7] and 184 nM in test [8].
Regarding `CC(Oc1ccc2[nH]nc(C(=O)Nc3cnn(CCC#N)c3)c2c1)c1c(Cl)cncc1Cl` (stereo not shown) [Compound 11, N-(1-(2-cyanoethyl)-1H-pyrazol-4-yl)-5-(1-(3,5-dichloropyridin-4-yl)ethoxy)-1H-indazole-3-carboxamide], the IC50 was determined as 5.6 nM in test [1], 1.1 nM in test [2], 1.7 nM in test [3] and 230 nM in test [4].
In the case of `CCN1CC(n2cc(NC(=O)c3n[nH]c4ccc(O[C@H](C)c5c(Cl)cncc5Cl)cc34)cn2)C1` [Compound 31, (R)-5-(1-(3,5-dichloropyridin-4-yl)ethoxy)-N-(1-(1-ethyl-azetidin-3-yl)-1H-pyrazol-4-yl)-1H-indazole-3-carboxamide], the half-maximal inhibitory concentration (IC50) in test [5] amounted to 0.93 nM; in test [6], 0.11 nM; in test [7], 0.07 nM; in test [8] it was 54 nM.
Regarding `CC(Oc1ccc2[nH]nc(C(=O)Nc3ccc(N4CCC(O)CC4)cc3)c2c1)c1c(Cl)cncc1Cl` (stereo not shown) [Compound 13, 5-(1-(3,5-dichloropyridin-4-yl)ethoxy)-N-(4-(4-hydroxypiperidin-1-yl)phenyl)-1H-indazole-3-carboxamide], the IC50 is 6.8 nM in test [1], 8.9 nM in test [2], 5.9 nM in test [3] and greater than 10000 nM in test [4].
